pEC50: −log10 of the molar value.
Legend:
[1] = system: Stage 5 gametocytes from P. falciparum NF54; test: Late-stage (stage V) gametocyte survival assay, MitoTracker; format: cell-based, Plasmodium falciparum; conditions: for pEC50: Plasmodium falciparum, P. falciparum NF54, 72 h, read-out: Stage 5 Gametocyte EC50; for EC50 fold shift compared to asexual stage: Stage 5 Gametocyte EC50: gametocyte EC50 / 3D7 EC50
Experimental: The second assay was a late-stage (stage V) gametocyte survival assay, which predicts transmission-blocking activity. […] Positive and negative control compounds included puromycin (0.61±0.11 μM) and atovaquone (> 12.50 μM), respectively.
To test sexual-stage activity, compounds were tested against late-stage gametocytes using a MitoTracker fluorescent-based assay. Specifically, synchronized stage V gametocytes were incubated with compound for 72 h. MitoTracker Red CMXRos (Life Technologies) was added to each well (final concentration: 500 nM) together with saponin to lyse the RBCs. Each plate was then imaged with an Operetta High Content Imaging System (Perkin Elmer) for fluorescence (590–640 nm). Varying levels of compound concentration were used (1.25 μM or 12.5 μM) due to the stock concentration supplied.
The gametocytocidal activity was measured using high-content image analysis software (Harmony, Perkin Elmer). The readout was based on number of metabolically active gametocytes per well.

[2] = system: CYTbQi (cytb G33A, parent Dd2); test: Cross-resistance EC50 assay, CYTbQi; format: cell-based; conditions: Plasmodium falciparum, SYBR green 72 hour assay, synchronized parasites, 384-well format
From the text: (§1) To evaluate potential overlapping activity against known antimalarial drug targets, we performed dose-response studies with each compound against our assembled set of drug-resistant lines and their corresponding parents, in an asexual blood stage proliferation assay (Table 1). Comparisons were made to the drug-sensitive strain 3D7 when a parent was unavailable (TM90C2A, W2 and Dd2). As laboratories conducted EC50 assays with different strains and protocols, all comparisons were made between assays from the same laboratory and under the same assay conditions. Compounds displaying >5-fold EC50 shifts relative to the parent or sensitive strain were flagged as having potentially non-novel targets. Average fold shifts per strain ranged from 0.82 to 2.34, with a median of 1.23 indicating there was not common resistance to any one resistant clone. No resistance patterns were observed when classifying the compounds based on chemical structure, but this was not surprising given the diversity of compounds chosen. On the other hand, given that these confirmed compounds were derived from larger unconfirmed hit lists to which some filtration criteria may have been applied (for example, elimination of obvious dihydrofolate reductase inhibitors[32]), some[10][11][12][13] pre-existing bias may exist in the set. […]
(§2) Alternatively, a SYBR Green-based proliferation approach was used for the 72-h assay, as previously described. Briefly, a culture of either synchronized or asynchronous parasitized RBCs (0.3% parasitemia and 4% haematocrit) in screening medium (identical to supplemented medium above except no serum was added) was exposed to serial drug dilutions. Plates were incubated at 37 °C and gassed with 93% N2, 4% CO2 and 3% O2 for 72 h. Following incubation, 10 × SYBR Green I (Invitrogen; supplied in 10,000 × concentration) in lysis buffer ([…], 5 mM EDTA, 0.16% Saponin wt per vol and 1.6% Triton X vol per vol) was added to the wells and the plates were incubated overnight at room temperature before plate reading. EC50 assays were repeated three times, taking the average EC50 value from each assay set, and removing any outliers using a single iteration of Grubbs' test, eliminating values with z-scores above the critical z-value (α=0.05). The raw EC50 values for synchronized parasites assayed in a 384-well format are listed in Supplementary Data 4. The raw EC50 values for asynchronous parasites assayed in a 96 or 1536-well format are listed in Supplementary Data 5.
(§3) EC50 values for each strain were compared with those of the corresponding parent strain to determine fold-shift changes and identify resistance. To minimize the cause variance between assays, all comparisons were conducted between strains assayed under identical conditions. A one-way ANOVA followed by a Dunnet's post-test was conducted in GraphPad Prism to identify significant changes between the parent and resistant strain.

[3] = system: P. berghei exoerythrocytic forms; test: Liver-stage P. berghei hepatocyte invasion and development assay (luminescence, HepG2); format: cell-based, Plasmodium berghei; conditions: for pEC50: Plasmodium berghei, HepG2, 48 h, P. berghei sporozoites, read-out: Liver Stage EC50; for EC50 fold shift compared to asexual stage: Liver Stage EC50: liver stage EC50 / 3D7 EC50
From the text: As drugs that eliminate multiple stages of the parasite lifecycle will be critical components in global efforts to eliminate malaria, we were interested in knowing whether the compounds in our study had additional activities against either the liver and/or transmission stages of the parasite lifecycle. To determine this, we first evaluated the compounds in additional phenotypic assays. The first assay was a P. berghei hepatocyte invasion and development assay, which predicts causal prophylactic activity. Hepatocyte toxicity was additionally tested to identify false-positive activity in the liver stage due to host-cell toxicity. Assays were executed in duplicate using a 12-point EC50 curve at starting concentrations of 5 μM or 50 μM (Supplementary Table 1).
Liver-stage activity was determined by pretreating hepatic human cells (HepG2) for 2 h with compound in 1,536-well plates infected with freshly dissected P. berghei sporozoites. After 48 h of incubation, the viability of P. berghei exoerythrocytic forms was measured by luminescence reaction light output using BrightGlo (Promega). Varying levels of compound concentration were used (5 μM or 50 μM) due to the stock concentration supplied.

[4] = system: DHODH (E182D, parent 3D7); test: Cross-resistance EC50 assay, DHODH; format: cell-based; conditions: Plasmodium falciparum, SYBR green 72 hour assay, synchronized parasites, 384-well format
From the text: as §1, §2, §3

[5] = system: P. falciparum; test: Rate of killing (parasite viability) assay; format: cell-based, Plasmodium falciparum; conditions: profile compared with chloroquine, pyrimethamine, atovaquone; 48 h treatment
Experimental: To identify whether selection success could be predicted by compound speed of action, and to gain a greater insight into the potential mechanisms of action, assays were performed to test the killing rate (Supplementary Data 1)[33]. To quantify the killing rate, viability time-course profiles for each compound were compared with antimalarials known to have fast (chloroquine), moderate (pyrimethamine) or slow (atovaquone) rate of action. These rates were then compared with other compound characteristics, including cross-resistance profile, selection success, potency and structural characteristics to identify any possible trends. […] One compound's rate of killing, MMV666080, was unidentifiable due to compound availability. No correlation was seen between compound structure and speed of action. Additionally, there was no correlation found between killing rate and compound potency against 3D7, nor between potency and selection success (Supplementary Fig. 2).
Rate of killing was determined for each compound following a previously described methodology, which uses the invasion of fresh erythrocytes as surrogate of parasite viability. Briefly, parasites were treated with compounds for 48 h. Compound was washed out and fresh-labelled erythrocytes added to the treated parasites. Double stained erythrocytes (RBC label plus parasite DNA label) were quantified and per cent of survival determined.

[6] = system: ProRS (prolyl t-RNA synthetase L482H, parent Dd2); test: Cross-resistance EC50 assay, ProRS; format: cell-based; conditions: Plasmodium falciparum, SYBR green 72 hour assay, synchronized parasites, 384-well format
From the text: as §1, §2, §3

Compound	pEC50 [1]	pEC50 ([2]; strain CYTbQi (Dd2 parent))	pEC50 [3]	pEC50 ([4]; strain DHODH (3D7 parent))	Killing Rate [5]	pEC50 ([6]; strain ProRS (Dd2 parent))	EC50 fold shift compared to asexual stage: Stage 5 Gametocyte EC50 [1]	EC50 fold shift compared to asexual stage: Liver Stage EC50 [3]	pEC50 ([2]; DD2, CYTbQi strain)	pEC50 ([4]; 3D7, DHODH strain)	pEC50 ([6]; DD2, ProRS strain)
O=C(Nc1ccsc1C(=O)NC1CCCCC1)c1ccc(F)cc1 [MMV665939]	< 5.90	5.79	< 5.30	6.11	ATQ (slow)	5.62					
CCN(CC)CCn1c(=N)n(CC(O)c2ccc(Cl)c(Cl)c2)c2ccccc21.Cl (stereo not shown) [MMV000248]	5.80	6.47	5.26	6.50	CQ (fast)	6.44	5.23	18.14			
Cc1ccc(Oc2ncccc2C(=O)Cc2cccc3cccnc23)c(C)c1 [MMV020746]	5.42	6.57	4.92	6.91	ATQ (slow)	6.56	49.87	159.34			
CN(C)Cc1ccc(-c2cc3c(-c4ccc(CN(C)C)cc4)ccnc3[nH]2)cc1.O=C(O)C(F)(F)F [MMV022224]	5.63	6.49	6.10	6.49	CQ (fast)	6.53					
OC(CNC1CCCCC1)Cn1c2ccc(I)cc2c2cc(I)ccc21 (stereo not shown) [MMV665882]	6.49	7.60	5.51	7.29	ATQ (slow)	7.60	4.44	42.02			
Nc1ccc(-c2nc3cc(Oc4ccc(Oc5ccc6[nH]c(-c7ccc(N)cc7)nc6c5)cc4)ccc3[nH]2)cc1 [MMV011895]	< 4.90	6.57	< 4.30	6.77	CQ (fast)	6.63	> 78	> 300			
CC(C)(C)OC(=O)N1CCN(c2ccccc2NC(=O)c2cccc(C(F)(F)F)c2Oc2ccc(F)cc2)CC1 [MMV030666]	6.00	6.45	6.21	6.41	PYR (moderate)	6.55	2.04	1.26			
O=C(Nc1ccc(Cl)c(Cl)c1)Nc1ccc(Cl)c(Cl)c1 [MMV665852]	< 5.90	6.00	6.46	5.75	CQ (fast)	6.15					
CC(NCc1ccccc1)c1cc(Cl)ccc1O (stereo not shown) [MMV665789]	< 5.90	6.17	< 5.30	6.14	PYR (moderate)	6.48	> 1	> 4			
FC(F)(F)c1cccc(Nc2nc3ccccc3nc2Nc2cccc(C(F)(F)F)c2)c1 [MMV665794]	6.08	6.89	6.43	6.73	PYR (moderate)	7.03					
COc1cc(C(=O)ON=C(N)Cc2cccc3ccccc23)cc(OC)c1OC [MMV666687]	5.36	6.23	4.68	5.97	CQ (fast)	6.49					
Nc1ccc(-c2nc3cc(Cc4ccc5[nH]c(-c6ccc(N)cc6)nc5c4)ccc3[nH]2)cc1 [MMV665943]	6.39	6.35	5.23	6.47	CQ (fast)	6.38	1.29	18.84			
COc1ccc(-c2nc(NC(=O)Cc3ccc4c(c3)OCCO4)sc2C)cc1 [MMV019719]	5.26	6.61	4.98	6.74	CQ (fast)	6.61	33.66	63.78			
Cc1nc2ccc3ccc(CNc4ccc(C(=O)CC(CCC(=O)O)C(=O)O)cc4)cc3c2c(=O)[nH]1.Cl (stereo not shown) [MMV027634]	< 4.90	7.38	< 4.30	7.48	ATQ (slow)		> 543	> 2170			
c1cncc(-c2cc(N3CCC(CN4CCOCC4)CC3)nc(-c3ccncc3)n2)c1 [MMV668399]	< 4.90	6.79	5.15	7.10	PYR (moderate)						
COc1ccc2c3c([nH]c2c1)[C@H](CO)N(C(C)=O)CC31CCN(C(=O)Nc2ccccc2F)CC1 [MMV673482]					PYR (moderate)				7.08	6.82	7.03
O=C(NC(c1ccccc1)c1ccc2cccnc2c1O)c1ccccc1 (stereo not shown) [MMV666080]	5.14	5.89	6.33	6.11		6.24	8.53	0.55			
CN(C)CCCN(C)C(=O)C1Cc2cc(-c3ccccc3)ccc2N1S(=O)(=O)c1ccccc1 (stereo not shown) [MMV028895]		6.13		7.09	ATQ (slow)	6.43					

Reference: PMC4912613, “A broad analysis of resistance development in the malaria parasite” (Nature Communications, 2016)
